Reference: patent US10906901B2, “Crystal form and salt form of N-phenyl-2-aminopyrimidine compound, and preparation method therefor” (HAINAN YUEKANG BIOMEDICINES CO., LTD., priority 2017, dated 2021)
In brackets after ≈: the same amount, converted by molar mass.

Columns and labels:
[1] = Bioavailability assay, single oral dose of capsules in Beagle dogs; conditions: single oral dose 3 mg/kg, crystalline powders in capsules
[2] = Dynamic Vapor Sorption (DVS); type: physicochemical
[3] = Accelerated stability test; type: physicochemical
[4] = biological target: EGFR (Homo sapiens, UniProt P00533); conditions: described in Chinese Patent Application 201610679161.7; cited from earlier work
[5] = tested on: cells with single or double EGFR mutations; conditions: described in Chinese Patent Application 201610679161.7; cited from earlier work
[6] = physchem; conditions: thermodynamic from solid
Protocol: Subsequently, 2 mL of buffer solutions at pH 1.2 and 6.8 were added respectively to prepare a saturated solution. The above resulting suspensions were placed in a shaker and shaken at a speed of 200 rpm for 2 hours at 25° C. The resulting mixtures were filtered, and the filtrates were diluted by an appropriate multiple and analyzed by HPLC to determine the solubility of each sample in different media.

Sequence of EGFR (P00533 25-1210): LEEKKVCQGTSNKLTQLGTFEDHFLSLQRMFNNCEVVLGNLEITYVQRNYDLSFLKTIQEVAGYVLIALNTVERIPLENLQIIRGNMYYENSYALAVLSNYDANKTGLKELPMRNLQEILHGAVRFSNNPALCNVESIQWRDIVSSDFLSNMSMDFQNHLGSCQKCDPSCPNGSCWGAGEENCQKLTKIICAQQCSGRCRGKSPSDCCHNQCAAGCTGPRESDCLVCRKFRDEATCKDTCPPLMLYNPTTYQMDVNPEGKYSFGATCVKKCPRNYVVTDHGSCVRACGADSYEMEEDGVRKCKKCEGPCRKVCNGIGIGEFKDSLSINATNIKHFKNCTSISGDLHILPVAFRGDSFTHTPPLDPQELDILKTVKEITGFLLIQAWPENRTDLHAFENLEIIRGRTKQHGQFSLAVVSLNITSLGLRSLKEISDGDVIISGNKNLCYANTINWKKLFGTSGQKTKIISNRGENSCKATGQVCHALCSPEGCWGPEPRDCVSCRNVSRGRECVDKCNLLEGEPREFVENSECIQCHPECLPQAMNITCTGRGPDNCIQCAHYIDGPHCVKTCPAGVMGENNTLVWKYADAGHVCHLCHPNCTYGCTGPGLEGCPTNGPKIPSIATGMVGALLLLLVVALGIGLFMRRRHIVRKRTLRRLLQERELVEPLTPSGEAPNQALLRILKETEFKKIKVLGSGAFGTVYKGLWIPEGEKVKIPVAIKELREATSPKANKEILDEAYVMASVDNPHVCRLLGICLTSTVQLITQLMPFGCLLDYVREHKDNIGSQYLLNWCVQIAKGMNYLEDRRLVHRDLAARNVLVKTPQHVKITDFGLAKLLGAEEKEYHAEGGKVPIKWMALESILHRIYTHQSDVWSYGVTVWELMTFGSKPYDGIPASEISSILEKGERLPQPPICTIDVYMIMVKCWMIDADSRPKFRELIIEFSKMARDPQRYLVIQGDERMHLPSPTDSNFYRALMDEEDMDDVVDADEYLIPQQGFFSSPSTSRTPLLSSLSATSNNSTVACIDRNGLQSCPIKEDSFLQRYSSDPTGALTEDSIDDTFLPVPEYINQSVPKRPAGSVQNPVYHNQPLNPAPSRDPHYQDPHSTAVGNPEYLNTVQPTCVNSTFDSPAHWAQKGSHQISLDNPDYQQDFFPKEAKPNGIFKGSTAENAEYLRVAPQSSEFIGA

Row | Molecule | AUC(0-t) [1] [ng·h/mL] | Cmax [1] [ng/mL] | peak time Tmax [1] [h] | hygroscopicity ([2]; DVS curve at 25° C.) | moisture absorption ([2]; at 80% RH) [%] | crystal structure after the accelerated stability test [3] | chemical stability ([3]; when avoiding the light) | inhibitory activity against EGFR [4] | selectivity to EGFR mutants [4] | inhibitory activity on cells with single or double EGFR mutations [5] | solubility at 2 h ([6]; buffer solution pH 1.2, 25 °C, pH 1.2, simulated gastric fluid) [mg/mL] | solubility at 2 h ([6]; buffer solution pH 6.8, 25 °C, pH 6.8, aqueous buffer) [mg/mL]
1 | Benzoate | 856.41 | 203.15 | 2 |  |  |  |  |  |  |  |  | 
2 | C=CC(=O)Nc1cc(Nc2nccc(-c3cnc4c(C)cccn34)n2)c(OC)cc1N(C)CCN(C)C [Compound 1, N-(2-methoxy-4-(N^1,N^2,N^2-trimethyl-1,2-ethylenediamine-1-yl)-5-acrylamidephenyl)-4-(8-methylimidazo[1,2-a]pyridin-3-yl)pyrimidin-2-amine] |  |  |  | almost no hygroscopicity | 0.934 | does not change | good chemical stability | significant inhibitory activity | high selectivity | strong inhibitory activity | 38.1 (≈ 76.1 mM) | 6.75 (≈ 13.5 mM)
